The text below walks through data of ChEMBL document CHEMBL5154868, “Novel Selective Galectin-3 Antagonists Are Cytotoxic to Acute Lymphoblastic Leukemia” (J Med Chem, 2022).

For orientation: Kd means the constant that tells how readily two partners part at equilibrium. In general, inhibition refers to how much of the control response was suppressed. A word on the IC50: it is the midpoint of a concentration-inhibition curve.

One data set concerns US7. As to the kind of experiment: Induction of cell death in human US7 patient-derived BCP-ALL cells assessed as reduction in viable cells at 0.5 to 800 uM incubated for 24 hrs by Alamar blue assay. In kind it is functional, cell-based. As to conditions: dose 0.5-800 µM, DDE = dose-dependent effect. In general terms: The colour change of resazurin is a common sign of viable cells or microbes.

The test system of the next data set is TXL2. Description: Induction of cell death in human TXL2 patient-derived BCP-ALL cells assessed as reduction in viable cells at 0.5 to 800 uM incubated for 24 hrs by Alamar blue assay. In kind it is functional, cell-based. As to conditions: dose 0.5-800 µM, DDE = dose-dependent effect.
Data set [1] has as its target T1, Galectin-4 (Homo sapiens, UniProt P56470).
T1 sequence (P56470 whole entry): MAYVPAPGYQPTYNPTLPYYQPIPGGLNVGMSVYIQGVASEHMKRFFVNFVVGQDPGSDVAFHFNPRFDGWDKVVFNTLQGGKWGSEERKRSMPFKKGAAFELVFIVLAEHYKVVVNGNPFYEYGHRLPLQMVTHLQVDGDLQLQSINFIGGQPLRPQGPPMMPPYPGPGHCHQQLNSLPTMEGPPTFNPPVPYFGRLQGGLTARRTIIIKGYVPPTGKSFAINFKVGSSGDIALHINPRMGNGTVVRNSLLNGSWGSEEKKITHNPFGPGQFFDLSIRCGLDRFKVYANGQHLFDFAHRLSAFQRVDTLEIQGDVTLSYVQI

Data set [2] deals with LAX40. As to the kind of experiment: Cytotoxicity against human LAX40 patient-derived BCP-ALL cells co-cultured with irradiated OP9 stromal cells assessed as reduction in cell viability at 100 uM for 1 to 3 days by trypan blue staining based assay. Type of data set: functional. As to conditions: time 1-3 day, TDE = time-dependent effect.
Data set [3] in a line: Cytotoxicity against mouse bone marrow-derived stromal OP9 cells assessed as live cells at 100 uM measured after 3 days by trypan blue staining based assay relative to control. Type of data set: toxicity, cell-based. As to conditions: time 3 day, read-out: Activity.
Data set [4] addresses T2, Galectin-8 (Homo sapiens) (UniProt O00214).
T2 sequence (whole entry): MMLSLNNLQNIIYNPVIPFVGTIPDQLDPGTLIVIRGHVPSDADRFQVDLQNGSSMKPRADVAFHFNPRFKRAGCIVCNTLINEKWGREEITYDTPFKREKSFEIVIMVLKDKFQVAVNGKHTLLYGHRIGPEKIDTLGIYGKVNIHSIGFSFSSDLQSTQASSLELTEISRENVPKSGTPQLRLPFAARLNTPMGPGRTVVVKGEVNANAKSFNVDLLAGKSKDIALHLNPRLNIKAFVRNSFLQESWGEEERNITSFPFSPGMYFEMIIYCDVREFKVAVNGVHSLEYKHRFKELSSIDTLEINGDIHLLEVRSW
As to the kind of experiment: Antagonist activity against human galectin-8N assessed as inhibition of galectin-8N at 2 mM by fluorescence polarization analysis relative to control.

A short description of data set [5]: Binding affinity to human galectin-1 C3S mutant by fluorescence polarization analysis.
The target in data set [6] is T1, Galectin-4. Description: Binding affinity to human galectin-4N expressed in Escherichia coli BL21 using 3,3'-dideoxy-3-[4-(fluorescein-5-yl-carbonylaminomethyl)-1H-1,2,3-triazol-1-y1]-3'-(3,5-dimethoxy-benzamido)-1,1'-sulfanediyl-di-beta-D-galactopyranoside as fluorescent probe by fluorescence polarization analysis. A general note: Fluorescence polarisation rises when a labelled molecule tumbles more slowly, as on binding a larger partner.

Data set [7] in a line: Cytotoxicity against human US7 patient-derived BCP-ALL cells co-cultured with irradiated OP9 stromal cells assessed as reduction in cell viability incubated for 24 hrs by Alamar blue assay. In kind it is functional, cell-based. As to conditions: US7, light or radiation study.
For data set [8], the system named is LAX40. Description: Cytostatic activity against human LAX40 patient-derived BCP-ALL cells co-cultured with irradiated OP9 stromal cells assessed as reduction in cell viability at 100 uM for 1 to 3 days by trypan blue staining based assay. As to conditions: time 1-3 day, TDE = time-dependent effect. Type of data set: functional.
Data set [9] has as its target T3, Galectin-8 (Homo sapiens, UniProt O00214).
T3 sequence (O00214 whole entry): T2 sequence (whole entry)
Description: Binding affinity to human galectin-8C expressed in Escherichia coli BL21(DE3) using 3,3'-dideoxy-3-[4-(fluorescein-5-yl-carbonylaminomethyl)-1H-1,2,3-triazol-1-y1]-3'-(3,5-dimethoxy-benzamido)-1,1'-sulfanediyl-di-beta-D-galactopyranoside as fluorescent probe by fluorescence polarization analysis.

A further data set has as its target Galectin-3 (Homo sapiens, UniProt P17931).
The target in another data set is Galectin-1 (Homo sapiens, UniProt P09382). Description: Binding affinity to human galectin-1 using 3,3'-dideoxy-3-[4-(fluorescein-5-yl-carbonylaminomethyl)-1H-1,2,3-triazol-1-y1]-3'.(3,5-dimethoxy-benzamido)-1,1'-sulfanediyl-di-beta-D-galactopyranoside as fluorescent probe by fluorescence polarization analysis.
Galectin-1, sequence (P09382 whole entry): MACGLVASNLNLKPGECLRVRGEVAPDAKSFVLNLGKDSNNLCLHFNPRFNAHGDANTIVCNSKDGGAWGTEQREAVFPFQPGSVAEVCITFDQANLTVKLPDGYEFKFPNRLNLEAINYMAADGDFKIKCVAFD
The target in data set [10] is T3, Galectin-8. Description: Binding affinity to human galectin-8N using 3,3'-dideoxy-3-[4-(fluorescein-5-yl-carbonylaminomethyl)-1H-1,2,3-triazol-1-y1]-3'.(3,5-dimethoxy-benzamido)-1,1'-sulfanediyl-di-beta-D-galactopyranoside as fluorescent probe by fluorescence polarization analysis.
Data set [11] concerns the target T4, Galectin-4 (Homo sapiens) (UniProt P56470).
T4 sequence (whole entry): T1 sequence (P56470 whole entry)
Description: Antagonist activity against human galectin-4N expressed in Escherichia coli BL21 assessed as inhibition of galectin-4N at 2 mM using 3,3'-dideoxy-3-[4-(fluorescein-5-yl-carbonylaminomethyl)-1H-1,2,3-triazol-1-y1]-3'-(3,5-dimethoxy-benzamido)-1,1'-sulfanediyl-di-beta-D-galactopyranoside as fluorescent probe by fluorescence polarization analysis relative to control.

Galectin-3, sequence (P17931 whole entry): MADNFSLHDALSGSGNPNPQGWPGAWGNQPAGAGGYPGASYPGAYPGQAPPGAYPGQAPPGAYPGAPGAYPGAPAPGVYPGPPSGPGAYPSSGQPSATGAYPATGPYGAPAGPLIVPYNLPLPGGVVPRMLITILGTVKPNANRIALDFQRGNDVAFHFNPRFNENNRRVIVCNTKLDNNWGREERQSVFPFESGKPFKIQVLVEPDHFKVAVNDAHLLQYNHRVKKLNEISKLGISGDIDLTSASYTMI
Description for Galectin-3: Binding affinity to human galectin-3 using 2-(fluorescein-5/6-yl-carbonylamino)-ethyl 2-acetamido-2-deoxy-alpha-D-galactopyranosyl-(1-3)-[alpha-L-fucopyranosyl-(1-2)]-beta-D-galactopyranosyl-(1-4)-beta-D-glucopyranoside by fluorescence polarization analysis

`CO[C@@H]1O[C@H](CO)[C@H](O)[C@H](OC(=O)c2ccc(C)cc2)[C@@H]1OC(=O)c1ccccc1[N+](=O)[O-]`: the Activity result in the data set with US7 is “Dde”; in the data set with TXL2, “Dde”; with LAX40 [2], “Tde”; with LAX40 [8], “Tde”. The Kd at Galectin-4 [1] was determined as 48 µM; in [5] it was 1.8 mM; at Galectin-4 [6], 440 µM. For the same compound, the viability at 72 h, 100 µM in [3] is no less than 65%. Besides, in data set [4], the inhibition was less than 20%. In [7], the IC50 was found to be 307 µM.

`CO[C@@H]1O[C@H](CO)[C@H](O)[C@H](OC(=O)c2ccc(C)cc2)[C@@H]1OC(=O)c1cccc([N+](=O)[O-])c1`: the Kd at Galectin-4 [1] was 630 µM; at Galectin-8 [9] it was 4 mM; on Galectin-4 [6] it was 1400 µM; at Galectin-3, 130 µM; on Galectin-1, 2.7 mM. In [4], the inhibition is less than 20%. The IC50 in data set [7] was determined as 138 µM.

As to `CO[C@@H]1O[C@H](CO)[C@H](O)[C@H](OC(=O)c2ccc(C)cc2)[C@@H]1OC(=O)c1ccc(F)cc1[N+](=O)[O-]`, the Kd at Galectin-4 [1] was 6.5 µM; on Galectin-8 [9] it was 0.9 mM; on Galectin-4 [6] it was 710 µM; on Galectin-1 it was 2.1 mM. Also, the inhibition in data set [4] was less than 20%. Further, in [7], the IC50 amounted to 150 µM.

As to `CO[C@@H]1O[C@H](CO)[C@H](O)[C@H](OC(=O)c2ccc(C)cc2)[C@@H]1OC(=O)c1ccc(C(F)(F)F)cc1[N+](=O)[O-]`, the Kd was found to be 40 µM on Galectin-4 [1], 1.9 mM on Galectin-8 [9], 1400 µM at Galectin-4 [6] and 4 mM at Galectin-1. Further, the Activity result with LAX40 [2] and with LAX40 [8] was “Tde” throughout. The inhibition in data set [4] is less than 20%. Moreover, the IC50 in [7] is 83 µM.

For the compound `CO[C@@H]1O[C@H](CO)[C@H](O)[C@H](OC(=O)c2ccc(C)cc2)[C@@H]1OC(=O)c1ccc(Cl)cc1[N+](=O)[O-]`, the Kd on Galectin-4 [1] came to 18 µM; at Galectin-8 [9], 0.45 mM; at Galectin-8 [10], 4 mM; at Galectin-4 [6], 250 µM; on Galectin-1, 1.4 mM. Also, the half-inhibitory concentration (IC50) in data set [7] worked out at 128 µM.

`CO[C@@H]1O[C@H](CO)[C@H](O)[C@H](OC(=O)c2ccc(C)cc2)[C@@H]1OC(C)=O`: the Kd on Galectin-4 [1] came to 2900 µM; at Galectin-3, 420 µM; at Galectin-1 it was 4.1 mM. The inhibition in data set [4] and in [11] was less than 20% in each case.
